Assay [1] is filed under the species Cavia porcellus. The assay can be described thus: Antagonistic activity with LTC4 as agonist in trachea tissue of guinea pig smooth muscles. The class given is functional, Muscle tissue.
For assay [2], the species on record is Cavia porcellus. The assay can be described thus: Antagonistic activity with LTD4 as agonist in trachea tissue of guinea pig smooth muscles. The class given is functional, Muscle tissue.
For assay [3], the species on record is Cavia porcellus. The experiment in a line: Antagonistic activity with LTE4 as agonist in trachea tissue of guinea pig smooth muscles. Format: functional, Muscle tissue.
The species named for assay [4] is Cavia porcellus. The assay can be described thus: pA2 value on guinea pig ileum tissue in presence of LTD4 as agonist. The class given is functional. The settings on record: read-out: pA2 (converted).
The species named for assay [5] is Cavia porcellus. The experiment in a line: pA2 value on guinea pig ileum tissue in presence of LTE4 as agonist. Format: functional. The settings on record: read-out: pA2 (converted).
The species entered for assay [6] is Cavia porcellus. The experiment in a line: Antagonistic activity with Histamin as agonist in ileum tissue of guinea pig smooth muscles. Format: functional.
The species named for assay [7] is Cavia porcellus. The assay can be described thus: Antagonistic activity with LTC4 as agonist in ileum tissue of guinea pig smooth muscles. Format: functional.
The species entered for assay [8] is Cavia porcellus. The assay can be described thus: Antagonistic activity with LTD4 as agonist in ileum tissue of guinea pig smooth muscles. The class given is functional.
Assay [9] is filed under the species Cavia porcellus. The assay can be described thus: Antagonistic activity with LTE4 as agonist in ileum tissue of guinea pig smooth muscles. The class given is functional.
Assay [10] is filed under the species Cavia porcellus. The assay can be described thus: pA2 value on guinea pig trachea tissue in presence of LTD4 as agonist. Format: functional. The settings on record: read-out: pA2 (converted).
For assay [11], the species on record is Cavia porcellus. The assay can be described thus: pA2 value on guinea pig trachea tissue in presence of LTE4 as agonist. The settings on record: read-out: pA2 (converted). The class given is functional.
For assay [12], the species on record is Cavia porcellus. The experiment in a line: Antagonistic activity with Bradykinin as agonist in ileum tissue of guinea pig smooth muscles. Format: functional.
The species named for assay [13] is Cavia porcellus. The assay can be described thus: pA2 value on guinea pig parenchyma tissue in presence of LTE4 as agonist. Format: functional. The settings on record: read-out: pA2 (converted).
The species named for assay [14] is Cavia porcellus. The assay can be described thus: Antagonistic activity with Carbamylcholine as agonist in trachea tissue of guinea pig smooth muscles. The class given is functional, Muscle tissue.
For assay [15], the species on record is Cavia porcellus. The experiment in a line: Antagonistic activity with LTD4 as agonist in parenchyma tissue of guinea pig smooth muscles. Format: functional, Muscle tissue.
For assay [16], the species on record is Cavia porcellus. The assay can be described thus: Antagonistic activity with LTE4 as agonist in parenchyma tissue of guinea pig smooth muscles. Format: functional, Muscle tissue.
Assay [17] is filed under the species Cavia porcellus. The experiment in a line: Antagonistic activity with U-46,619 as agonist in trachea tissue of guinea pig smooth muscles. The class given is functional, Muscle tissue.
The species named for assay [18] is Cavia porcellus. The experiment in a line: pA2 value on guinea pig parenchyma tissue in presence of LTD4 as agonist. The class given is functional. The settings on record: read-out: pA2 (converted).

Each structure is given as a SMILES string.

For the compound `CCCc1c(COc2ccc(Cc3nnn(CCCc4nnn[n-]4)n3)cc2)ccc(C(C)=O)c1O.[Na+]`, the pKB in assay [1] was 5.67; in [2], 6.69; in assay [3], 7.57; in assay [6], less than 5; in assay [7], 5.39; in [8], 7.84. Further, in assay [9], the pKB is 8.37. Besides, the Kb in assay [4] is 0.012 µM; in assay [5] it was 0.00363 µM; in assay [10], 0.204 µM; in assay [11] it was 0.0269 µM.

For `CCc1c(COc2ccc(C(=O)CC(C)(C)CC(=O)[O-])cc2)ccc(C(C)=O)c1O.[Na+]`, the pKB in assay [1] was less than 5; in assay [2] it was 6.52; in [3], 7.09; in assay [12], less than 5; in [6], less than 5; in [7], less than 5. Further, the pKB is 7.46 in assay [8]; 7.73 in assay [9]; less than 5 in [14]; 6.74 in [15]; 7.13 in assay [16]; less than 5 in assay [17]. In addition, the Kb in [5] is 0.00977 µM; in assay [13], 0.0363 µM; in assay [11], 0.0631 µM; in assay [18], 0.138 µM.
